Measurements from patent publication US20120302490A1, “Bleach Catalyst Compounds, Method For The Production Thereof And Use Thereof” (CLARIANT FINANCE (BVI) LIMITED, priority 2009, published 2012).

Assay: Water absorption (hygroscopicity) of the solid upon storage
Assay type: physicochemical
Description: Tri-μ-oxobis[(1,4,7-trimethyl-1,4,7-triazacyclononane)manganese(IV)]dichloride is prepared analogously to comparative example 1 and isolated in pure form as a red-brown powder. 4.7 g (8 mmol) thereof are dissolved in 50 ml of water and admixed with 3.1 g (16 mmol) of toluene-4-sulfonic acid sodium salt (Merck). After-stirring is carried out for 1 hour at room temperature, followed by evaporation to dryness on a rotary evaporator.
Analogously to comparative example 1, an aqueous solution of 0.2 mol of tri-μ-oxobis[(1,4,7-trimethyl-1,4,7-triazacyclononane)manganese(IV)]dichloride in water is prepared and freed from manganese oxides/hydroxides. The salts contained as a result of the reaction (sodium chloride) remain in the solution. At 25° C., 0.4 mol (77.6 g) of solid toluene-4-sulfonic acid sodium salt (Merck) is added and the mixture is after-stirred for 30 minutes. The clear dark red solution is then evaporated to dryness. Drying in a vacuum drying cabinet gives a crystalline red-violet solid in 92.7% yield, a mixture of tri-μ-oxobis[(1,4,7-trimethyl-1,4,7-triaza-cyclononane)manganese(IV)]dichloride, sodium toluenesulfonate and sodium chloride.
The procedure is in accordance with example 2 but adding sodium cumenesulfonate instead of the sodium toluene-4-sulfonate (equimolar exchange of sodium toluene-4-sulfonate for sodium cumenesulfonate). Evaporation at 50° C. gives a red-brown solid which, after 5 days, absorbs 7.1% by weight of water and in so doing becomes lumpy.
4.4 g (7.5 mmol) of isolated tri-μ-oxobis[(1,4,7-trimethyl-1,4,7-triazacyclo-nonane)manganese(IV)]dichloride according to comparative example 1 are dissolved in 50 ml of water, and 4.3 g (15 mmol) of sodium dodecylsulfate are added. The mixture is after-stirred for 1 hour at room temperature and then evaporated to dryness on a rotary evaporator. This gives 8.7 g of crystalline red solid which, after storage for 5 days at room temperature, absorbs 8.7% by weight of water and in so doing becomes lumpy.

CN1CCN(C)CCN(C)CC1.CN1CCN(C)CCN(C)CC1.[Cl-].[Cl-].[O]1[Mn+]2[O][Mn+]1[O]2 [compound 1, tri-μ-oxobis[(1,4,7-trimethyl-1,4,7-triazacyclononane)-manganese(IV)]dichloride]
hygroscopicity of isolated powder (as isolated, red-brown powder): strongly hygroscopic
physical state after storage (open dish, room temperature, 24 hours): becomes liquid
water absorbed upon storage (open dish, room temperature, over the course of 24 hours): > 17 % by weight
